Laboratory results published in patent US12427161B2, “Methods for treating and pharmaceutical compositions” (Boehringer Ingelheim International GmbH, priority 2015, dated 2025).

Experiments:
[1] = tested on: corporal strips of diabetic GK rats; assay: EFS-induced relaxation of PHE-precontracted corpora cavernosa strips (ex vivo isometric tension); parameters: species or system rat
Procedure: In addition, to further evaluate erectile function, at the end of the in vivo evaluation of the ED, the penis of 24 GK rats (groups IIA & IIIA) and 12 wistar rats (group I) were immediately harvested and the corpora cavernosa (CC) dissected for ex vivo isometric tension studies. After extensive washings, corporal strips were incubated in the presence of guanethidine (5 μM) and atropine (1 μM) that were also added to the organ chambers for the remainder of the experiments. The corporal strips were placed between two parallel platinum electrodes in the organ baths. After equilibration (60 min), the electric field stimulation (EFS) experiments were started. Firstly, a priming period was observed where corporal strips from Wistar, GK (control) and GK_Chronic empa were exposed to phenylephrine (PHE) (10^−5 M) followed by an EFS-induced relaxation at 1 ms, 10 s, 300 mA and 20 Hz. Then, after washings, frequency-response curves (FRC) to EFS (1-2-4-8-16-32 Hz) was constructed on PHE-precontracted corporal strips (PHE 10^−5 M). Frequency response-curves (FRC) to EFS were performed by successive stimulation of the corporal strips at 1 ms, 10 s, 300 mA and increasing frequencies (1, 2, 4, 8, 16 and 32 Hz). […]
The results from duplicate determinations in one experiment with CC from one rat were averaged and the data expressed as mean±SEM for N experiments using CC from N different rats. […]

[2] = tested on: Goto-Kakizaki diabetic rats (GK rats); assay: Erectile responses to electrical stimulation of the cavernous nerve (ES CN), intracavernous pressure in anesthetized rats; assay type: in vivo, rat
Procedure: Adult male Wistar (Charles River, France) and age-matched GK rats (Metabrain Research, Chilly-Mazarin, France) were housed at least 7 days prior to the beginning of the treatment with free access to control diet and water and maintained on an inversed 12 h dark/light cycle. At 15 weeks of age, treatments were started; n=12 Wistar (group I) rats and n=24 GK (group II) rats were fed with a control diet, while n=24 GK rats (group III) were fed for 28 days by a medicated diet i.e., control diet premixed with empagliflozin 300 ppm (parts per million corresponding to an average of 25.3 mg/kg body weight of empaglfilozin in that experiment).
On day 29th after starting treatment administration, and approximately 16 hours after the last treatment administration, fasted rats (19 weeks of age) underwent an in vivo evaluation of their erectile function after electrical stimulation of the cavernous nerve (ES CN), in comparison to acute dosing of sildenafil.
Erectile responses were elicited by electric stimulation (ES) of the cavernous nerve (CN) and measured by monitoring intracavernous pressure (ICP) in anesthetized rats according to an experimental procedure previously described and well-standardized. After an overnight fasting period, rats were anesthetized (urethane […]) and their temperature maintained at 37° C. using a homoeothermic blanket. A tracheotomy was performed to prevent aspiration of saliva and to perform, when required, artificial ventilation. The carotid artery was catheterized with polyethylene tubings filled with heparinized saline (25 UI/ml) to record blood pressure (BP) via a pressure transducer (Elcomatic 750, Glasgow, UK). Simultaneous computerized measure of BP and ICP was performed. CN was exposed at the lateral aspect of the prostate, with the aid of a dissecting microscope and mounted on a bipolar platinum electrode connected to an electrical stimulator (AMS 2100, Phymep, France). In some animals an acute dose of sildenafil (0.3 mg/kg) or vehicle was intravenously injected. […] The CN was stimulated at 6V, 1 ms for 45 s by different stimulation frequencies (0, 2.5, 5, 7.5, 10, 12.5 and 15 Hz) in a randomized manner in order to assess the erectile responses. These different electrical stimulations on the increase of ICP were repeated twice in view of establishing a frequency-response curve for each animal.
Mean arterial pressure (MAP) and the amplitude of the erectile responses elicited by each ES CN were quantified for each rat and averaged for each experimental group by calculating: • ICP (mmHg)/MAP (mmHg)×100 with AICP being the difference between ICP in the flaccid state, i.e. before stimulation and ICP during the plateau phase of the erectile response, and MAP, the mean arterial pressure during the plateau phase. • AUC45/MAP with AUC45, the area under the curve during the first 45 seconds after the beginning of the electrical stimulation of the cavernous nerve and determined using the ICP level in the flaccid state before the onset of the stimulation. • AUCtot/MAP with AUCtot, the area under the curve during the entire erectile response, measured from the beginning of the electrical stimulation until the end of the erectile response and determined using the ICP level in the flaccid state before the onset of the stimulation. • ICP increase and AUC were normalized with MAP to account for the close influence of the systemic blood pressure in the amplitude of ICP increase during the plateau phase of the erectile response.
For erectile function evaluation, comparisons of frequency-response curves were performed with a two-way ANOVA statistical analysis test followed by a Bonferroni's post-test. In case of significant interaction between the two factors (i.e. frequency of ES CN and experimental group), the difference between groups of rats was examined by the modified Student's t-test with the Bonferroni's adjustment for multiple comparisons.

GK rats = settings: acute single dose 0.3 mg/kg; cited from earlier work
[3] = metformin on its own, in the diabetic; cited from earlier work

In the case of `OC[C@H]1O[C@@H](c2ccc(Cl)c(Cc3ccc(O[C@H]4CCOC4)cc3)c2)[C@H](O)[C@@H](O)[C@@H]1O` [empagliflozin, 1-chloro-4-(β-D-glucopyranos-1-yl)-2-[4-((S)-tetrahydrofuran-3-yloxy)-benzyl]-benzene], the “maximal relaxation induced by EFS at 32 Hz (percentage of inhibition of the contractile response to PHE)” value ([1]; 4-week empagliflozin 25.3±0.9 mg/kg/d, mean±SEM, not significantly different from untreated) was −42.0±2.9%, the “relaxation induced by EFS on PHE precontracted cavernosal strips (frequency-response curve)” value ([1]; 4-week treatment of empagliflozin at 25.3±0.9 mg/kg/d, vs untreated GK, p<0.05, 2-way ANOVA, FIG. 3) was “slightly but significantly improved” and the “pro-erectile facilitator effect compared with acute IV dose of sildenafil at 0.3 mg/kg” value ([2]; chronic empagliflozin 25.3±0.9 mg/kg/day) was “slightly but significantly lower”. For the same molecule, the “erectile responses to ES CN in terms of ΔICP/MAP” value ([2]; empagliflozin in diet 25.3±0.9 mg/kg/day for 4 weeks, vs GK control diet, p=0.08, 2-way ANOVA, FIG. 1) was “no difference could be statistically detected”, the “erectile responses to ES CN in terms of AUC45/MAP” value ([2]; empagliflozin premixed with diet 25.3±0.9 mg/kg/day for 4 weeks, vs GK control diet, p<0.05, FIG. 2a) was “improved” and the “erectile responses to ES CN in terms of AUCtot/MAP” value ([2]; empagliflozin premixed with diet 25.3±0.9 mg/kg/day for 4 weeks, vs GK control diet, p<0.05, FIG. 2b) was “improved”.
In the case of `CCCc1nn(C)c2c(=O)[nH]c(-c3cc(S(=O)(=O)N4CCN(C)CC4)ccc3OCC)nc12` [sildenafil], the “impaired erectile function in GK rats” value (GK rats) is given as “partially improved”, the “erectile response to ES CN in terms of ΔICP/MAP” value ([2]; sildenafil 0.3 mg/kg acute i.v. 4 min before evaluation, vs GK control, p<0.0001, 2-way ANOVA, FIG. 1) is given as “significantly increased” and the “erectile response to ES CN in terms of AUC45/MAP” value ([2]; sildenafil 0.3 mg/kg acute i.v., vs GK control, p<0.0001, 2-way ANOVA, FIG. 2a) is given as “significantly increased”. The “erectile response to ES CN in terms of AUCtot/MAP” value ([2]; sildenafil 0.3 mg/kg acute i.v., vs GK control, p<0.0001, 2-way ANOVA, FIG. 2b) was “significantly increased”.
For `CN(C)C(=N)N=C(N)N` [metformin], the “average improvement in the HbA1c value” [3] is given as 1.0-1.5%.
